Values after ≈ are worked out from the molar mass of the structure shown. Read-outs that look alike come from different tables or passages of the source.
Tests used:
[1] = system: M. smegmatis 4x03863 Mutant 4; assay: microbe, parasite or virus in culture; format: cell-based; conditions: Mycolicibacterium smegmatis, read-out: MIC100
[2] = system: M. smegmatis 4x03863 Mutant 1; assay: microbe, parasite or virus in culture; format: cell-based; conditions: Mycolicibacterium smegmatis, read-out: MIC100
[3] = system: M. smegmatis 4x03863 Mutant 3; assay: microbe, parasite or virus in culture; format: cell-based; conditions: Mycolicibacterium smegmatis, read-out: MIC100
M. smegmatis ATCC 19420 = assay: Antibacterial testing, broth microdilution (CLSI); format: cell-based, Mycobacterium smegmatis; conditions: Mycolicibacterium smegmatis
Description: (§1) Antibacterial testing was performed for Acinetobacter baumannii NCTC 13420, E. coli ATCC 25922, M. smegmatis ATCC 19420, Pseudomonas aeruginosa ATCC 27853 and Staphylococcus aureus ATCC 29213, using the broth microdilution method under CLSI guidelines[19] (Table 1). The agar dilution method was additionally performed for M. smegmatis under EUCAST guidelines.[20]

E. coli 2x03863 Mutant = assay: microbe, parasite or virus in culture; format: cell-based; conditions: Escherichia coli, read-out: MIC100
E. coli ATCC 25922 = assay: Antibacterial testing, broth microdilution (CLSI); format: cell-based; conditions: Escherichia coli
Description: as §1

[4] = system: M. smegmatis 4x03863 Mutant 2 (GyrB Gly83Ser)
[5] = target: T1, M. tuberculosis GyrBA fusion protein (Mycobacterium tuberculosis, UniProt P9WG45+P9WG47); assay: biochemical
T1 construct: Both the GyrB and GyrBA constructs were altered by deleting the N-terminal 40 amino acids; made in house; host or cells: E. coli Rosetta 2 (pLysS)

M. tuberculosis gyrase [6] = target: T2, M. tuberculosis gyrase (Mycobacterium tuberculosis, UniProt P9WG45); assay: biochemical; conditions: 74 nM of each gyrase subunit, 1% DMSO; read-out: IC50 (apparent), gyrase supercoiling
T2 construct: Both the GyrB and GyrBA constructs were altered by deleting the N-terminal 40 amino acids; made in house

M. tuberculosis gyrase [7] = target: T2, M. tuberculosis gyrase; assay: DNA cleavage assay (cleavage complex stabilisation); format: biochemical; conditions: 20 nM gyrase, 1% DMSO
Description: Figure S1. […] DNA cleavage assays were carried out as previously described;^11 these are essentially the same as supercoiling assays, except that the reactions are terminated by the addition of SDS and proteinase K, and incubated for a further 30 mins at 37°C. Samples contained 20 nM gyrase and 1% DMSO, except where indicated, and Moxifloxacin, Redx03863 or Redx04739, as indicated. Agarose gels (1%) were run in the presence of 0.5 µg/mL ethidium bromide. – indicates no gyrase; + and all other lanes contain gyrase. nc = nicked circular DNA; l = linear; cc = closed circular.

S. aureus ATCC 29213 = assay: Antibacterial testing, broth microdilution (CLSI); format: cell-based; conditions: Staphylococcus aureus, ATCC29213
Description: as §1

A. baumannii NCTC 13420 = assay: Antibacterial testing, broth microdilution (CLSI); format: cell-based; conditions: Acinetobacter baumannii, NCTC13420
Description: as §1

P. aeruginosa ATCC 27853 = assay: Antibacterial testing, broth microdilution (CLSI); format: cell-based; conditions: Pseudomonas aeruginosa, ATCC27853
Description: as §1

M. tuberculosis gyrase [8] = target: T2, M. tuberculosis gyrase; assay: ATP-independent relaxation of supercoiled DNA; format: biochemical; conditions: absence of ATP
Description: In the presence of FQs, gyrase can cleave DNA due to the cleavage complex being stabilized.[35]

[9] = M. smegmatis ATCC19420 (WT), read-out: MIC100
[10] = E. coli ATCC25922 (WT), read-out: MIC100
[11] = GyrBA fusion protein at 200 nM, linear pBR322 DNA 20 μg/mL, read-out: apparent IC50, gyrase ATPase activity
[12] = gyrase 200 nM, IC50 lower than this not determinable, read-out: IC50, gyrase ATPase reaction
[13] = ATCC25922, E. coli ATCC 25922, broth microdilution, read-out: MIC
[14] = ATCC19420, M. smegmatis ATCC 19420, broth microdilution, read-out: MIC

NNC(=O)c1ccncc1 [Isoniazid]
MIC [1]: 32 µg/mL (≈ 233 µM) | MIC [2]: 32 µg/mL (≈ 233 µM) | MIC [3]: 16 µg/mL (≈ 117 µM) | MIC (M. smegmatis ATCC 19420; [9]): 32 µg/mL (≈ 233 µM)

COc1c(N2C[C@@H]3CCCN[C@@H]3C2)c(F)cc2c(=O)c(C(=O)O)cn(C3CC3)c12 [Moxifloxacin, reference compound]
MIC [1]: < 0.125 µg/mL | MIC [2]: < 0.125 µg/mL | MIC (E. coli 2x03863 Mutant): 0.016 µg/mL (≈ 0.0399 µM) | MIC [3]: < 0.125 µg/mL | MIC (E. coli ATCC 25922; [10]): 0.016 µg/mL (≈ 0.0399 µM) | MIC (M. smegmatis ATCC 19420; [9]): 0.125 µg/mL (≈ 0.311 µM)

CNc1cc(F)cc2c1[nH]c1nc(Oc3cnc(C)nc3)nc(N3C[C@@H]4[C@@H](N)[C@@H]4C3)c12 [Redx03863]
MIC [1]: 0.25 µg/mL (≈ 0.595 µM) | increase in resistance of mutant strain [4]: 16 fold | MIC [2]: 0.25 µg/mL (≈ 0.595 µM) | IC50 [5, 11]: 170 nM | IC50 [5, 12]: ~200 nM | IC50 (M. tuberculosis gyrase [6]): 9 nM | stabilization of the cleavage complex (M. tuberculosis gyrase [7]): did not stabilize the cleavage complex | MIC (E. coli 2x03863 Mutant): 32 µg/mL (≈ 76.1 µM) | MIC [3]: 0.125 µg/mL (≈ 0.297 µM) | MIC (S. aureus ATCC 29213): 0.125 µg/mL (≈ 0.297 µM) | MIC (A. baumannii NCTC 13420): 0.031 µg/mL (≈ 0.0737 µM) | MIC (P. aeruginosa ATCC 27853): 4 µg/mL (≈ 9.51 µM) | MIC (E. coli ATCC 25922; [13]): 0.016 µg/mL (≈ 0.0381 µM) | MIC (E. coli ATCC 25922; [10]): 0.016 µg/mL (≈ 0.0381 µM) | MIC (M. smegmatis ATCC 19420; [14]): 0.016 µg/mL (≈ 0.0381 µM) | MIC (M. smegmatis ATCC 19420; [9]): 0.016 µg/mL (≈ 0.0381 µM) | inhibition of relaxation of supercoiled DNA (M. tuberculosis gyrase [8]): did not inhibit

CNc1cc(F)cc2c1[nH]c1nc(CNC(=O)c3cnco3)nc(N3CCC(N)C3)c12 (centres unmarked) [Redx04739]
MIC [1]: 2 µg/mL (≈ 4.71 µM) | increase in resistance of mutant strain [4]: 8 fold | MIC [2]: 4 µg/mL (≈ 9.42 µM) | IC50 [5, 11]: 210 nM | IC50 [5, 12]: ~200 nM | IC50 (M. tuberculosis gyrase [6]): 30 nM | stabilization of the cleavage complex (M. tuberculosis gyrase [7]): did not stabilize the cleavage complex | MIC (E. coli 2x03863 Mutant): > 64 µg/mL | MIC [3]: 4 µg/mL (≈ 9.42 µM) | MIC (S. aureus ATCC 29213): 8 µg/mL (≈ 18.8 µM) | MIC (A. baumannii NCTC 13420): 64 µg/mL (≈ 151 µM) | MIC (P. aeruginosa ATCC 27853): 32 µg/mL (≈ 75.4 µM) | MIC (E. coli ATCC 25922; [13]): 8 µg/mL (≈ 18.8 µM) | MIC (E. coli ATCC 25922; [10]): 8 µg/mL (≈ 18.8 µM) | MIC (M. smegmatis ATCC 19420; [14]): 0.25 µg/mL (≈ 0.589 µM) | MIC (M. smegmatis ATCC 19420; [9]): 0.5 µg/mL (≈ 1.18 µM) | inhibition of relaxation of supercoiled DNA (M. tuberculosis gyrase [8]): did not inhibit

CO[C@@H]1[C@@H](OC(N)=O)[C@@H](O)[C@H](Oc2ccc3c(O)c(NC(=O)c4ccc(O)c(CC=C(C)C)c4)c(=O)oc3c2C)OC1(C)C [novobiocin, reference compound]
MIC [1]: 4 µg/mL (≈ 6.53 µM) | MIC [2]: 4 µg/mL (≈ 6.53 µM) | MIC (E. coli 2x03863 Mutant): 0.5 µg/mL (≈ 0.816 µM) | MIC [3]: 8 µg/mL (≈ 13.1 µM) | MIC (E. coli ATCC 25922; [10]): 64 µg/mL (≈ 104 µM) | MIC (M. smegmatis ATCC 19420; [9]): 2 µg/mL (≈ 3.26 µM)

Reference: paper PMC7556816, “Structural and mechanistic analysis of ATPase inhibitors targeting mycobacterial DNA gyrase” (Journal of Antimicrobial Chemotherapy, 2020)
